Source: US6410597B1, “Hydroxyalkyl amide analogs of ceramide” (Virginia Commonwealth University, priority 2000, dated 2002)
“Also recorded” adds a separate entry of the source.

Tests used:
[1] = system: Neuroblastoma cells (NG108-15 or F-11); test: Effect of alkyl chain length on apoptotic potential of N-acylated compounds; format: cell-based; conditions: 30% confluence, overnight, various concentrations
Protocol: (§1) Apoptosis was analyzed by DNA fragmentation, in situ terminal nucleotidyl transferase assay, and staining of condensed chromatin with Hoechst dye 33258 as described elsewhere (Ji et al., 1995; Bieberich et al., 1999) and as further outlined below. The degree of cell death was monitored by determination of the number of floating cells and cells stained with 0.4% trypan blue (Wang et al., 1999).
Neuroblastoma cells (NG108-15 or F-11) were grown to 30% confluence and incubated overnight with various concentrations of N-acyl compounds containing carbon chains with 8, 16 and 18 carbons, as well as C16 ethanolamine. The floating cells were harvested from the medium and the amount of cellular protein determined for calculation of dead cells. In addition, cell death was quantified by staining with trypan blue. The attached cells were stained with Hoechst dye 33258 for calculation of apoptotic cells with condensed chromatin. The number of apoptotic cells was determined by counting 100 stained cells in 20 different areas on tissue culture dishes from three independent experiments.
The effect of alkyl chain length on the apoptotic potential of S16 and two compounds differing only in the length of the alkyl chains, S8 (8 carbons)and S18 (18 carbons) was investigated as described in Methods. Also, the contribution of the second β-hydroxymethyl group of S16 was analyzed by comparison with the effect of C16 EA (C16 ethanolamine) on apoptosis. […] As such, the preferred length is 12-20 carbons.

T98 cells = test: MTS proliferation assay of malignant glioma cells; format: cell-based, human; conditions: T98, 5 days; S16 100 μM, S18 100 or 200 μM
Protocol: (§2) FIGS. 5A, 5B and 5C. MTS proliferation assay of in vitro brain tumor cells (malignant glioma) treated with structural analogues of ceramic. (•) control; (∘) S16, 100 μM; (▾) S18, 200 μM; (∇) S18, 100 μM. 5A: U87 cells (6 days); 5B: RT2 cells (6 days); 5C: T98 cells (5 days).
(§3) Murine neuroblastoma x rat glioma NG108-15 and murine neuroblastoma x rat dorsal root ganglion F-11 cells were kindly provided by Drs. Robert Ledeen (New Jersey School of Medicine, Newark, N.J.) and Glyn Dawson (University of Chicago, Chicago, Ill.), respectively. PC12 (rat adrenal pheochromocytoma, ATCC CRL 1721) cells were purchased from the American Type Culture Collection (Manassas, Va.). U87 and T98 human glioma cells were purchased from the American Type Culture Collection (Manassas, Va.). RT2 rat glioma cells were a gift.
(§4) CU87, T98 or RT2 malignant glioma cells (750/well) were plated onto 96-well plates and allowed to grow for 5-6 days in the presence of the ceramic analogues S16, S18 or B16, or control media. The CellTiter96® Aqueous One cell proliferation assay (Promega, Inc.) was used to quantify glioma cell proliferation. In this assay, the amount of formazan product (490 nm absorbance) made from the conversion of [3-(,5-dimethyl-2-yl)-5-(3-carboxymethoxyphenyl)-2-(4-sulfophenyl)-2H-tetrazolium, inner salt (MTS) by dehydrogenase enzymes of metabolically active cells is directly proportional to the number of living cells in culture.
(§5) The effect of the compounds S16, S18, and B16 on the ability of U87, RT2 and T98 glioma cells to proliferate in vitro was investigated as described in Methods and the results are presented in FIGS. 5A, 5B and 5C, respectively.

U87 cells = test: MTS proliferation assay of malignant glioma cells; format: cell-based, human; conditions: U87, 6 days; S16 100 μM, S18 100 or 200 μM
Protocol: as §2, §3, §4, §5

RT2 cells = test: MTS proliferation assay of malignant glioma cells; format: cell-based, rat; conditions: RT2, 6 days; S16 100 μM, S18 100 or 200 μM
Protocol: as §2, §3, §4, §5

[2] = system: NG108-15 or F-11 neuroblastoma tumors; test: In vivo tumor model in athymic mice; design: species or system athymic NU/NU mice
Protocol: A total of 1×10^6 NG108-15 or F-11 cells in 200 μl of phosphate buffered saline (PBS) was subcutaneously injected into each side of athymic NU/NU mice (Harlan) for generation of an in vivo brain tumor model in mouse skin. The resulting tumors were treated either intraperitoneally or by direct intratumor injection of ceramic analogs. Tumor growth rates and treatment results were the same within experimental error regardless of whether NG108-15 or F-11 cells were used.
Tumor growth was monitored by caliper measurement. The tumor volume was calculated by the formula: tumor size [mm^3]=(tumor width [mm])^2×tumor length [mm].
(§6) The intraperitoneal administration of ceramic analogs started one day after grafting and was performed twice per day with 0.7 ml of 2 mM S16 or 4 mM S18 corresponding to 50-100 mg/kg per mouse. The compounds were predissolved in dimethylsulfoxide (DMSO) at a maximum concentration of 250 mM and then serially diluted to 2 mM S16 or 4 mM S18 in 20% bovine serum albumin (BSA), 500 μM sodium stearate, 0.9% sodium chloride.
The intratumoral administration of ceramic analogs was initiated when tumor size was 30-50 mm^3 and consisted of daily injections of a 10-fold concentrated analog solution prepared as described above for S16 or of 2 mM B16 in 0.9% sodium chloride. The final concentration was calculated to be 200 μM when applied in a volume of 10% of the tumor size. Tumor volume was measured and calculated as described above.
Athymic mice were grafted with neuroblastoma tumors by subcutaneous injection and treated by intraperitoneal or intratumoral injection of S16 as described in Methods. Control mice received no treatment, or treatment with C-16 EA. […] Furthermore, the first measurable tumors appeared 2 days later in mice treated with S16 than in control mice. […]
FIG. 9. […] The tumor volume was determined by caliper measurement and was about 4 ml for the mouse on the left side (untreated for 10 days) and 2 ml for the mouse on the right side (treated for 14 days).

NG108-15 cells [3] = test: Alteration of ceramic and sphingolipid levels (HPTLC) upon incubation with S16; format: cell-based, murine neuroblastoma x rat glioma
From the text: as §3
(§7) Lipids were prepared and analyzed by HPTLC as described previously (Freischutz et al., 1997).
(§8) NG108-15 or F-11 cells were incubated with 100 μM S16 overnight and endogenous ceramic analyzed by HPTLC of neutral lipids corresponding to 200 μg of cellular protein applied per lane. The HPTLC plate was developed in CHCl3/HOAc (9:1), v/v) and sphingolipids stained with cupric acetate/phosphoric acid reagent. Levels of ceramic, sphingomyelin, and neutral lipids were determined by densitometric analysis and comparison with various amounts of standard lipids. […] However, the concentration of ceramic in F-11 and NG108-15 cells at 20% confluence was elevated by about 50-80%.

F-11 cells [4] = test: as above; format: cell-based, murine neuroblastoma x rat dorsal root ganglion
From the text: as §3, §7, §8

NG108-15 cells [5] = test: Dependence of S16 induced apoptosis on cell density; format: cell-based, murine neuroblastoma x rat glioma; conditions: 100 μM S16 overnight; cell density below 20% or above 50%
Protocol: as §1
Cells were grown to varying degrees of confluence (100%=1.0×10^5 cells/cm^2) and then incubated overnight with 100 μM S16. The floating cells were harvested from the medium and the amount of cellular protein determined for calculation of dead cells. In addition, cell death was quantified by staining with trypan blue. The attached cells were stained with Hoechst dye 33258 for calculation of apoptotic cells with condensed chromatin. The number of apoptotic cells was determined by counting 100 stained cells in 20 different areas on tissue culture dishes from three independent experiments.
(§9) The dependence of the rate of S16 induced apoptosis of NG108-15 cells on cell density was investigated as described in methods and the results are given in FIG. 3. […] This observation was confirmed by determination of cell density-dependent DNA fragmentation (laddering) upon incubation with S16. Cells were incubated with 100 μM S16 for 15 hours.

NG108-15 cells [6] = test: Cell density-dependent DNA fragmentation (laddering); format: cell-based, murine neuroblastoma x rat glioma; conditions: 100 μM S16, 15 hours; 30% confluent compared with 100% confluent cells
Protocol: as §1, §9

F-11 cells [7] = test: as above; format: cell-based, murine neuroblastoma x rat dorsal root ganglion; conditions: 100 μM S16, 15 hours; 30% confluent compared with 100% confluent cells
PC12 cells = test: Dependence of apoptosis on cell differentiation (Hoechst dye 33258 staining); format: cell-based, rat; conditions: 24 hours; undifferentiated vs forskolin-differentiated PC12 cells
From the text: as §3, §1
The dependence of apoptosis upon differentiation of cells was analyzed by incubating undifferentiated PC12 cells and PC12 cells which had been induced to differentiate with S16 for 24 hours. Differentiation was induced by preincubation with 10 μM forskolin for 48 hrs. The extent of apoptosis was determined by staining with Hoechst dye 33258.
The apoptotic potential of S16 with respect to cell differentiation was investigated as described in Methods.

[8] = General toxicity during in vivo treatment; conditions: up to a total of 200 mg/kg/day, treatment for 14 days
Protocol: as §6
Athymic mice were grafted with neuroblastoma tumors by subcutaneous injection and treated by intraperitoneal or intratumoral injection of S16 as described in Methods. Control mice received no treatment, or treatment with C-16 EA. […] Furthermore, the first measurable tumors appeared 2 days later in mice treated with S16 than in control mice.

[9] = 100 μM S16, 100% confluent cells
[10] = 100 μM S16 overnight, cells at 20% confluence

CCCCCCCC/C=C\CCCCCCCC(=O)NC(CO)CO [S18, N-oleoyl serinol]
apoptotic potential [1]: optimal | cellular proliferation (T98 cells): marked decrease in cellular proliferation; also recorded: virtually eliminating the proliferation | cellular proliferation (U87 cells): marked decrease in cellular proliferation; also recorded: virtually eliminating the proliferation | cellular proliferation (RT2 cells): marked decrease in cellular proliferation; also recorded: virtually eliminating the proliferation | tumor volume (caliper measurement) ([2]; F-11 grafts, intra-peritoneal 0.7 ml of 4 mM twice a day for 14 days, untreated mouse about 4 ml at 10 days): ~2 mL

CCCCCCCCCCCCCCCC(=O)NC(CO)CO [S16, N-palmitoyl serinol]
alteration of endogenous ceramic (NG108-15 cells [3]; [9]): no significant alteration | alteration of the glycosphingolipid composition (NG108-15 cells [3]; 100 μM S16 overnight): no detectable alteration | alteration of the level of sphingomyelin (NG108-15 cells [3]; 100 μM S16 overnight): no detectable alteration | concentration of ceramic elevated (NG108-15 cells [3]; [10]): 50-80% | alteration of endogenous ceramic (F-11 cells [4]; [9]): no significant alteration | alteration of the glycosphingolipid composition (F-11 cells [4]; 100 μM S16 overnight): no detectable alteration | alteration of the level of sphingomyelin (F-11 cells [4]; 100 μM S16 overnight): no detectable alteration | concentration of ceramic elevated (F-11 cells [4]; [10]): 50-80% | degree of apoptosis (NG108-15 cells [5]): markedly decreased | laddering of 200-base pair fragments (NG108-15 cells [6]): increased markedly | laddering of 200-base pair fragments (F-11 cells [7]): increased markedly | apoptosis (staining with Hoechst dye) (PC12 cells): only undifferentiated cells showed the typical staining | apoptotic potential [1]: optimal | cellular proliferation (T98 cells): marked decrease in cellular proliferation | cellular proliferation (U87 cells): marked decrease in cellular proliferation | cellular proliferation (RT2 cells): marked decrease in cellular proliferation | final size of the tumors relative to untreated or C16-EA treated mice ([2]; intraperitoneal or intratumoral injection): 30-35% | delay of appearance of first measurable tumors versus control mice ([2]; mice treated with S16): 2 days | effects of general toxicity [8]: No effects of general toxicity were observable

CCCCCCCCCCCCCCCC(=O)N(CCO)CCO [B16, N,N-bis(2-hydroxyethyl) palmitamide]
cellular proliferation (T98 cells): marked decrease in cellular proliferation; also recorded: virtually eliminating the proliferation | cellular proliferation (U87 cells): marked decrease in cellular proliferation; also recorded: virtually eliminating the proliferation | cellular proliferation (RT2 cells): marked decrease in cellular proliferation; also recorded: virtually eliminating the proliferation

CCCCCCCCCCCCCCCC(=O)NCCO [C16 EA, N-palmitoyl ethanolamine, reference compound]
apoptotic potential [1]: almost no apoptosis
